In patent publication US11396501B2, “Heteroaryl compounds as CXCR4 inhibitors, composition and method using the same” (CGENETECH (SUZHOU, CHINA) CO., LTD., priority 2017, dated 2022):

Key:
[1] = target: T1, CXCR4 (Homo sapiens, UniProt P61073); experiment: HPB-ALL CXCR4 competitive binding assay (12G5 binding assay); design: HPB-ALL cells were maintained in RPMI-1640 (Gibico) supplemented with 10% FBS (Hyclone); endogenous in cells; host or cells: HPB-ALL cells; settings: HPB-ALL cells; competition with APC-conjugated anti-human CXCR4 clone 12G5 at its EC80; 4° C. for 3 h; FACS
T1 sequence (P61073 whole entry): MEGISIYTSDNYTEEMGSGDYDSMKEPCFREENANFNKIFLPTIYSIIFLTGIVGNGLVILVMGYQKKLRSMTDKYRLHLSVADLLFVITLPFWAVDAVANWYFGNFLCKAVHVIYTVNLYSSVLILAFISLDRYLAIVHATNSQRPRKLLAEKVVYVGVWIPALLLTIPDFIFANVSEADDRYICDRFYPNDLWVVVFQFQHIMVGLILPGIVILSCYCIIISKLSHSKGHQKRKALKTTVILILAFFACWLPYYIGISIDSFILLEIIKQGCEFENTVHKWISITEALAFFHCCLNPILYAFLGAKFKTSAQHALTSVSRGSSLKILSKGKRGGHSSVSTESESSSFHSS
Protocol: HPB-ALL CXCR4 Competitive Binding Assay
HPB-ALL cells were maintained in RPMI-1640 (Gibico) supplemented with 10% FBS (Hyclone). APC-conjugated anti-human CXCR4 was from Sungene. EC80 was first determined for 12G5 binding to CXCR4. Then the compounds for testing were added into 96-well plates serially diluted at a ratio of 1:3. Cells were washed once with ice-cold assay buffer (DPBS+2% HI-FBS) and then re-suspended in the same buffer at a final concentration of 1×10^6/mL. Cell suspension was then added into the wells and with the addition of APC-conjugated anti-human CXCR4 clone 12G5 at its EC80 determined. The mix of cell, compounds and APC-conjugated anti-human CXCR4 were incubated at 4° C. for 3 h before addition of 100 μL of 4% PFA. Cells were then washed once and resuspended in assay buffer and examined by FACS. The percent (%) effect at each concentration of compound was calculated and relative to the amount of calcium produced in the positive and negative control wells contained within each assay plate. The concentrations and % effect values for tested compounds were plotted and the concentration of compound required for 50% effect (IC50) was determined. Tables 2 summarize results of the CXCR4 competitive binding assay for selected compounds disclosed in the present disclosure. FIGS. 1-2 depict the IC50 curves of compounds A42 and A43.

[2] = target: T1, CXCR4; experiment: FLIPR Tetra calcium mobilization assay; format: cell-based; settings: Human CD4+ T-Cells; CXCL12 added; FLIPR Calcium 4 assay kit
Protocol: FLIPR Tetra Calcium Mobilization Assay The FLIPR Tetra calcium mobilization assay was performed by HD Bioscience. Briefly, The Molecular Devices, Fluorescent Imaging Plate Reader (FLIPR) Tetra was used in this assay. Excitation was achieved through unique placement of LED's within the instrument and emission captured by a CCD camera (EMCCD camera for FI and ICCD camera for luminescence). The homogeneous FLIPR Calcium 4 assay kit from Molecular Devices was used as the fluorescence reagent. Compounds were solubilized in 100% dimethyl sulfoxide (DMSO) to a concentration of 30 mM. A 10-point, 4-fold, intermediate dilution series was created in 100% DMSO with a top concentration of 4 mM and a bottom concentration of 0.01 μM. A near assay ready, direct dilution plate ([…]) was prepared from this compound dilution plate by transferring 1 μL of each dilution of compound in 100% DMSO to a Greiner #781201 plate. In addition, each […] plate also contained positive and negative control wells to define the upper and lower limits for the assay signal. The final assay concentration range of compound was 10 μM to 0.035 nM in 0.5% DMSO. Human CD^4+ T-Cells were isolated from human whole blood and subsequently activated and expanded using a CD3/CD28 expansion kit (Life Technologies). The cells were frozen in ThermoFisher-formulated Recovery Cell Culture Freezing Medium containing 10% Dimethyl sulfoxide (DMSO) and 10% Fetal Bovine Serum (FBS) (ThermoFisher Catalog No. 10100147). When used, cells were resuspended using room temperature 1× HBSS/20 mM HEPES/0.005% P-104 assay buffer, adjusted the volume of the suspension to achieve a cell concentration of 2.5×10^6 cells/mL. 2× Calcium 4 dye (20 μL/well) were added and the mixture were centrifuged briefly ( 10 s) and stopped when it reached 1000 rpm. The plates were allowed to equilibrate before compounds and CXCL12 were added to the plates. The raw data were analyzed using Abase. The percent (%) effect at each concentration of compound was calculated by Abase and was based on and relative to the amount of calcium produced in the positive and negative control wells contained within each assay plate. The concentrations and % effect values for tested compounds were plotted by Abase and the concentration of compound required for 50% effect (IC50) was determined with a four-parameter logistic dose response equation. FIGS. 3 and 4 summarize the results of Compounds A78 and A83 in the calcium mobilization assay.

Row | Structure (SMILES) | IC50 [1] [nM] | IC50 [2] [nM]
1 | Cc1nc(CN(C)[C@H](C)c2ccccn2)cc(N2CCN(C)CC2)n1 [Compound A76] | 220 | –
2 | Cc1nc(CN(C)C2CCCc3cccnc32)c(C#N)c(N2CCN(C)CC2)n1 (stereo not shown) [Compound A77] | 9 | –
3 | Cc1nc(CN(C)[C@@H](C)c2ccccn2)cc(N2CCN3CCC[C@@H]3C2)n1 [Compound A78] | – | 0.062
4 | Cc1nc(CN(C)[C@@H](C)c2ccccn2)cc(N2CCN3CCC[C@H]3C2)n1 [Compound A79] | – | 0.22
5 | CCN(Cc1cc(N2CCN(C)CC2)nc(C)n1)[C@@H](C)c1ccccn1 [Compound A80] | – | 0.18
6 | C[C@@H](c1ccccn1)N(C)Cc1cc(N2CCN(C)CC2)nc(CO)n1 [Compound A81] | – | 4.5
7 | C[C@@H](c1ccccn1)N(C)Cc1cc(N2CCN3CCC[C@@H]3C2)nc(CO)n1 [Compound A82] | – | 2.5
8 | C[C@@H](c1ccccn1)N(C)Cc1cc(N2CCN(C)CC2)nc(N)n1 [Compound A83] | – | 0.93
9 | Cc1nc(CN(C)[C@@H](C)c2ccccn2)cc(N2CCN(C)CC2CO)n1 (stereo partly shown) [Compound A84] | – | 3
10 | Cc1nc(CN(C)[C@@H](C)c2ccccn2)c(CO)c(N2CCN(C)CC2)n1 [Compound A85, (S)-(2-methyl-4-((methyl(1-(pyridin-2-yl)ethyl)amino)methyl)-6-(4-methylpiperazin-1-yl)pyrimidin-5-yl)methanol] | – | 0.99
11 | Cc1nc(CN(C)[C@@H](C)c2ccccn2)c(CO)c(N2CCN3CCC[C@@H]3C2)n1 [Compound A86] | – | 0.13
12 | Cc1nc(CN(C)[C@@H](C)c2ccccn2)c(CO)c(N2CCN3CCC[C@H]3C2)n1 [Compound A87] | – | 0.18
13 | Cc1nc(CN(C)[C@@H](C)c2ccccn2)c(CO)c(N2CCN(C)[C@@H](C)C2)n1 [Compound A88] | – | 0.3
14 | Cc1nc(CN(C)[C@@H](C)c2ccccn2)c(CO)c(N2CCN(C)[C@H](C)C2)n1 [Compound A89] | – | 0.13
15 | Cc1nc(CN(C)C2CCOc3cccnc32)cc(N2CCN(C)CC2)n1 (stereo not shown) [Compound A90] | – | 0.046
16 | Cc1nc(CN(C)[C@H]2CCOc3cccnc32)cc(N2CCN(C)CC2)n1 [Compound A91] | – | 0.032
17 | COc1cccnc1[C@H](C)N(C)Cc1cc(N2CCN(C)CC2)nc(C)n1 [Compound A92] | – | 118
18 | C[C@@H](c1ccccn1)N(C)Cc1cn2c(N3CCN(C)CC3)cccc2n1 [Compound A95, (S)-N-methyl-N-((5-(4-methylpiperazin-1-yl)imidazo[1,2-a]pyridin-2-yl)methyl)-1-(pyridin-2-yl)ethan-1-amine] | – | 0.13
19 | C[C@@H](c1ccccn1)N(C)Cc1nc2cccc(N3CCN(C)CC3)n2c1CO [Compound A96, (S)-(2-((methyl(1-(pyridin-2-yl)ethyl)amino)methyl)-5-(4-methylpiperazin-1-yl)imidazo[1,2-a]pyridin-3-yl)methanol] | – | 0.086
20 | C[C@@H](c1ccccn1)N(C)Cc1cn2c(N3CCN4CCC[C@H]4C3)cccc2n1 [Compound A97] | – | 0.25
21 | C[C@@H](c1ccccn1)N(C)Cc1cn2c(N3CCN4CCC[C@@H]4C3)cccc2n1 [Compound A98] | – | 0.15
22 | C[C@@H](c1ccccn1)N(C)Cc1nc2cccc(N3CCN4CCC[C@H]4C3)n2c1CO [Compound A99] | – | 0.39
23 | C[C@@H](c1ccccn1)N(C)Cc1nc2cccc(N3CCN4CCC[C@@H]4C3)n2c1CO [Compound A100] | – | 0.29

More lines, now with the values ahead:

Row | IC50 [1] [nM] | IC50 [2] [nM] | Structure (SMILES)
24 | > 10000 | – | CN1CCN(c2cc(N(C)CC3CCCc4cccnc43)ncn2)CC1 (stereo not shown) [Compound B1]
25 | > 10000 | – | CN(C)c1ncc(CN(C)C2CCCc3cccnc32)c(NCCNC(=O)OC(C)(C)C)n1 (stereo not shown) [Compound B7, reference compound]
26 | > 10000 | – | CN(C)c1ncc(CN(C)C2CCCc3cccnc32)c(NCCN)n1 (stereo not shown) [Compound B8, reference compound]
27 | 93 | – | CSc1nc([C@H]2CCCN2[C@H]2CCCc3cccnc32)cc(N2CCN(C)CC2)n1 [Compound C1]
28 | 2320 | – | CSc1nc([C@@H]2CCCN2[C@@H]2CCCc3cccnc32)cc(N2CCN(C)CC2)n1 [Compound C4]
29 | 20 | – | Cc1nc([C@H]2CCCN2[C@H]2CCCc3cccnc32)cc(N2CCN(C)CC2)n1 [Compound C5]
30 | 3240 | – | Cc1nc([C@H]2CCCCN2[C@H]2CCCc3cccnc32)cc(N2CCN(C)CC2)n1 [Compound C6]
31 | 6960 | – | Cc1nc([C@@H]2CCCCN2[C@@H]2CCCc3cccnc32)cc(N2CCN(C)CC2)n1 [Compound C8]
32 | 248 | – | CSc1nc(CN2CCCCC2c2ccccn2)cc(N2CCN(C)CC2)n1 (stereo not shown) [Compound C10]
33 | 142 | – | CSc1nc(CN2CCCC2c2ccccn2)cc(N2CCN(C)CC2)n1 (stereo not shown) [Compound C11]
34 | 165 | – | Cc1nc(CN2CCCC2c2ccccn2)cc(N2CCN(C)CC2)n1 (stereo not shown) [Compound C12]
35 | 62 | – | Cc1nc([C@H]2CCN2[C@H]2CCCc3cccnc32)cc(N2CCN(C)CC2)n1 [Compound C13]
36 | 8110 | – | Cc1nc([C@H]2CCN2[C@@H]2CCCc3cccnc32)cc(N2CCN(C)CC2)n1 [Compound C14]
37 | 500 | – | Cc1nc([C@H]2C[C@@H](O[Si](C)(C)C(C)(C)C)CN2[C@H]2CCCc3cccnc32)cc(N2CCN(C)CC2)n1 [Compound C15]
38 | 7.74 | – | Cc1nc([C@H]2C[C@@H](O)CN2[C@H]2CCCc3cccnc32)cc(N2CCN(C)CC2)n1 [Compound C16, (3R,5R)-5-(2-methyl-6-(4-methylpiperazin-1-yl)pyrimidin-4-yl)-1-((S)-5,6,7,8-tetrahydroquinolin-8-yl)pyrrolidin-3-ol]
39 | 429 | – | CSc1nc(CN2CCCCC2c2ccccn2)cc(N2CCN(C)CC2)n1 (stereo not shown) [Compound C18]
40 | 1710 | – | Cc1nc([C@H]2CC(F)(F)CN2[C@H]2CCCc3cccnc32)cc(N2CCN(C)CC2)n1 [Compound C19]
41 | 82 | – | CO[C@@H]1C[C@H](c2cc(N3CCN(C)CC3)nc(C)n2)N([C@H]2CCCc3cccnc32)C1 [Compound C21]
42 | 144 | – | Cc1nc(CN2CCC[C@H]2c2ccccn2)cc(N2CCN(C)CC2)n1 [Compound C23]
43 | 68 | – | Cc1nc(CN2CCC[C@H]2c2ncccc2C)cc(N2CCN(C)CC2)n1 [Compound C25]
44 | 206 | – | Cc1ccnc([C@@H]2CCCN2Cc2cc(N3CCN(C)CC3)nc(C)n2)c1 [Compound C26]
45 | 279 | – | Cc1ccc([C@@H]2CCCN2Cc2cc(N3CCN(C)CC3)nc(C)n2)nc1 [Compound C27]
46 | 2280 | – | Cc1cccc([C@@H]2CCCN2Cc2cc(N3CCN(C)CC3)nc(C)n2)n1 [Compound C28]
47 | 1200 | – | Cc1nc(CN2CCC(C)C2c2ccccn2)cc(N2CCN(C)CC2)n1 (stereo not shown) [Compound C29]
48 | – | 1.1 | Cc1nc(CN2CCC[C@H]2c2ncccc2C)c(F)c(N2CCN(C)CC2)n1 [Compound C33]
49 | – | 1.8 | Cc1nc(CN2CCC[C@H]2c2ncccc2C)c(C#N)c(N2CCN(C)CC2)n1 [Compound C34]
50 | – | 2.7 | Cc1nc(CN2CCC[C@H]2c2ncccc2C)cc(NCCN2CCOCC2)n1 [Compound C35]
51 | – | 0.5 | Cc1nc(CN2CCC[C@H]2c2ncccc2C)cc(N2CCCN(C)CC2)n1 [Compound C36]
52 | – | 12 | Cc1nc(CN2CCC[C@H]2c2ncccc2C)cc(N2CCC(N(C)C)CC2)n1 [Compound C37]
